US20180200315A1, “CANNABINOID AND CAFFEINE EMULSIFICATIONS” (priority 2016, published 2018)

Experiment: Emulsifier experiments with coconut oils and water (Example 2)
Assay type: physicochemical
Conditions: tested as emulsifying agents; solid and liquid (MCT) coconut oils
Experimental: Several experiments were run using several different emulsifiers and combinations of different coconut oils: solid and liquid (MCT). (Note: liquid MCT is coconut oil that has medium chain triglyceride). Guar gum, lecithin, and cyclodextrin were tested as emulsifying agents and provided good results.

cyclodextrin
emulsification of the oil and water: good results
